Measured values reported in ChEMBL document CHEMBL4699579, “A Peptidyl Inhibitor that Blocks Calcineurin-NFAT Interaction and Prevents Acute Lung Injury” (J Med Chem, 2020).
Starred links: 1 amine or outer side, 2 acyl side, 3 side chain; linkers in the order of their positions; H or OH if unused. Non-standard residues stand in square brackets, D forms with d. Residues, ends and D or L forms follow the SMILES beside them. *: point of attachment. X5 = O=C(O)c1cc(NC(=S)*)ccc1-c1c2ccc(=O)cc-2oc2cc(O)ccc12; Benzoyl(2,3,4,5,6-F5) = O=C(c1c(F)c(F)c(F)c(F)c1F)*; Benzoyl(2,3-Cl2) = O=C(c1cccc(Cl)c1Cl)*; X3 = CC1(C)SC[C@@H](C(=O)[*:2])N1[*:1]; Cyclohexanecarbonyl = O=C(C1CCCCC1)*; Cyclopentanecarbonyl = O=C(C1CCCC1)*; X7 = O=C(c1cc(F)c(F)c(F)c1F)*; Tle = CC(C)(C)[C@H](N)C(=O)O; X4 = O=C(c1ccc(Br)c(Cl)c1)*; X6 = Cc1ccc(C(=O)*)c(F)c1F; AEEA = NCCOCCOCC(=O)O; Bz = O=C(c1ccccc1)*; βAla = NCCC(=O)O; For = O=C*

assay: Binding affinity to GST-tagged Calcineurin (unknown origin) incubated for 1 hr by fluorescence polarization assay; parameters: species or system Homo sapiens

Kd [µM]	SMILES
0.041	CC[C@H](C)[C@H](NC(=O)[C@@H](NC(=O)c1cccc(Cl)c1Cl)C(C)(C)C)C(=O)N[C@H](C(=O)N[C@H](C(=O)N[C@H](C(=O)NCC(=O)N1CCC[C@H]1C(=O)N[C@@H](Cc1c[nH]cn1)C(=O)N[C@@H](CCC(=O)O)C(=O)N[C@@H](CCC(=O)O)C(=O)N[C@@H](Cc1ccc(O)cc1)C(=O)N[C@@H](CCCCNC(=S)Nc1ccc(-c2c3ccc(=O)cc-3oc3cc(O)ccc23)c(C(=O)O)c1)C(N)=O)[C@@H](C)O)[C@@H](C)CC)C(C)(C)C ({Benzoyl(2,3-Cl2)}-[Tle]I[Tle]ITGPHEEYK(X5)-NH2)
0.074	CC[C@H](C)[C@H](NC(=O)[C@@H](NC(=O)c1ccc(C)c(F)c1F)C(C)(C)C)C(=O)N[C@H](C(=O)N[C@H](C(=O)N[C@H](C(=O)NCC(=O)N1CCC[C@H]1C(=O)N[C@@H](Cc1c[nH]cn1)C(=O)N[C@@H](CCC(=O)O)C(=O)N[C@@H](CCC(=O)O)C(=O)N[C@@H](Cc1ccc(O)cc1)C(=O)N[C@@H](CCCCNC(=S)Nc1ccc(-c2c3ccc(=O)cc-3oc3cc(O)ccc23)c(C(=O)O)c1)C(N)=O)[C@@H](C)O)[C@@H](C)CC)C(C)(C)C (X6-[Tle]I[Tle]ITGPHEEYK(X5)-NH2)
0.189	CC[C@H](C)[C@H](NC(=O)[C@@H](NC(=O)c1ccc(Br)c(Cl)c1)C(C)(C)C)C(=O)N[C@H](C(=O)N[C@H](C(=O)N[C@H](C(=O)NCC(=O)N1CCC[C@H]1C(=O)N[C@@H](Cc1c[nH]cn1)C(=O)N[C@@H](CCC(=O)O)C(=O)N[C@@H](CCC(=O)O)C(=O)N[C@@H](Cc1ccc(O)cc1)C(=O)N[C@@H](CCCCNC(=S)Nc1ccc(-c2c3ccc(=O)cc-3oc3cc(O)ccc23)c(C(=O)O)c1)C(N)=O)[C@@H](C)O)[C@@H](C)CC)C(C)(C)C (X4-[Tle]I[Tle]ITGPHEEYK(X5)-NH2)
0.032	CC[C@H](C)[C@H](NC(=O)[C@@H](NC(=O)c1cc(F)c(F)c(F)c1F)C(C)(C)C)C(=O)N[C@H](C(=O)N[C@H](C(=O)N[C@H](C(=O)NCC(=O)N1CCC[C@H]1C(=O)N[C@@H](Cc1c[nH]cn1)C(=O)N[C@@H](CCC(=O)O)C(=O)N[C@@H](CCC(=O)O)C(=O)N[C@@H](Cc1ccc(O)cc1)C(=O)N[C@@H](CCCCNC(=S)Nc1ccc(-c2c3ccc(=O)cc-3oc3cc(O)ccc23)c(C(=O)O)c1)C(N)=O)[C@@H](C)O)[C@@H](C)CC)C(C)(C)C (X7-[Tle]I[Tle]ITGPHEEYK(X5)-NH2)
> 5.4	CC[C@H](C)[C@H](NC(=O)[C@@H](NC(C)=O)C(C)(C)C)C(=O)N[C@H](C(=O)N[C@H](C(=O)N[C@H](C(=O)NCC(=O)N1CCC[C@H]1C(=O)N[C@@H](Cc1c[nH]cn1)C(=O)N[C@@H](CCC(=O)O)C(=O)N[C@@H](CCC(=O)O)C(=O)N[C@@H](Cc1ccc(O)cc1)C(=O)N[C@@H](CCCCNC(=S)Nc1ccc(-c2c3ccc(=O)cc-3oc3cc(O)ccc23)c(C(=O)O)c1)C(N)=O)[C@@H](C)O)[C@@H](C)CC)C(C)(C)C (Ac-[Tle]I[Tle]ITGPHEEYK(X5)-NH2)
0.022	CC[C@H](C)[C@H](NC(=O)[C@@H](NC(=O)c1cccc(Cl)c1Cl)C(C)(C)C)C(=O)N[C@H](C(=O)N[C@H](C(=O)N[C@H](C(=O)N[C@@H](CC(=O)O)C(=O)N[C@@H](CCC(N)=O)C(=O)N[C@@H](Cc1ccc(O)cc1)C(=O)N[C@H](CCCCN)C(=O)NCCC(=O)N[C@@H](CCCCNC(=S)Nc1ccc(-c2c3ccc(=O)cc-3oc3cc(O)ccc23)c(C(=O)O)c1)C(N)=O)[C@@H](C)O)[C@@H](C)CC)C(C)(C)C
0.077	CC[C@H](C)[C@H](NC(=O)[C@@H](NC(=O)c1c(F)c(F)c(F)c(F)c1F)C(C)(C)C)C(=O)N[C@H](C(=O)N[C@H](C(=O)N[C@H](C(=O)NCC(=O)N1CCC[C@H]1C(=O)N[C@@H](Cc1c[nH]cn1)C(=O)N[C@@H](CCC(=O)O)C(=O)N[C@@H](CCC(=O)O)C(=O)N[C@@H](Cc1ccc(O)cc1)C(=O)N[C@@H](CCCCNC(=S)Nc1ccc(-c2c3ccc(=O)cc-3oc3cc(O)ccc23)c(C(=O)O)c1)C(N)=O)[C@@H](C)O)[C@@H](C)CC)C(C)(C)C ({Benzoyl(2,3,4,5,6-F5)}-[Tle]I[Tle]ITGPHEEYK(X5)-NH2)
0.207	CC[C@H](C)[C@H](NC(=O)[C@@H](NC(=O)C1CCCCC1)C(C)(C)C)C(=O)N[C@H](C(=O)N[C@H](C(=O)N[C@H](C(=O)NCC(=O)N1CCC[C@H]1C(=O)N[C@@H](Cc1c[nH]cn1)C(=O)N[C@@H](CCC(=O)O)C(=O)N[C@@H](CCC(=O)O)C(=O)N[C@@H](Cc1ccc(O)cc1)C(=O)N[C@@H](CCCCNC(=S)Nc1ccc(-c2c3ccc(=O)cc-3oc3cc(O)ccc23)c(C(=O)O)c1)C(N)=O)[C@@H](C)O)[C@@H](C)CC)C(C)(C)C (Cyclohexanecarbonyl-[Tle]I[Tle]ITGPHEEYK(X5)-NH2)
0.012	CC[C@H](C)[C@H](NC(=O)[C@@H](NC(=O)c1cccc(Cl)c1Cl)C(C)(C)C)C(=O)N[C@H](C(=O)N[C@H](C(=O)N[C@H](C(=O)N[C@@H](Cc1ccc(O)cc1)C(=O)N[C@H](CCC(=O)O)C(=O)N[C@@H](Cc1ccc(F)cc1)C(=O)N[C@@H](Cc1c[nH]cn1)C(=O)NCCC(=O)N[C@@H](CCCCNC(=S)Nc1ccc(-c2c3ccc(=O)cc-3oc3cc(O)ccc23)c(C(=O)O)c1)C(N)=O)[C@@H](C)O)[C@@H](C)CC)C(C)(C)C
0.0026	CC[C@H](C)[C@H](NC(=O)[C@@H](NC(=O)[C@@H](NC(=O)[C@@H](NC(=O)[C@@H]1CCCN1C(=O)[C@H](Cc1cnc[nH]1)NC(=O)[C@@H]1CCCN1C(=O)CN)C(C)(C)C)[C@@H](C)CC)C(C)(C)C)C(=O)N[C@H](C(=O)NCC(=O)N1[C@H](C(=O)N[C@@H](Cc2cnc[nH]2)C(=O)N[C@@H](CCC(=O)O)C(=O)N[C@@H](CCC(=O)O)C(=O)O)CSC1(C)C)[C@@H](C)O (H-GPHP[Tle]I[Tle]ITG[X3]HEE-OH)
0.064	CC[C@H](C)[C@H](NC(=O)[C@@H](NC(=O)c1cccc(Cl)c1Cl)C(C)(C)C)C(=O)N[C@H](C(=O)N[C@H](C(=O)N[C@H](C(=O)N[C@@H](CC(=O)O)C(=O)N[C@@H](CCC(N)=O)C(=O)N[C@@H](Cc1ccc(O)cc1)C(=O)N[C@@H](CCCNC(=N)N)C(=O)NCCC(=O)N[C@@H](CCCCNC(=S)Nc1ccc(-c2c3ccc(=O)cc-3oc3cc(O)ccc23)c(C(=O)O)c1)C(N)=O)[C@@H](C)O)[C@@H](C)CC)C(C)(C)C ({Benzoyl(2,3-Cl2)}-[Tle]I[Tle]ITDQYR[βAla]K(X5)-NH2)
0.0047	CC[C@H](C)[C@H](NC(=O)[C@@H](NC(=O)c1cccc(Cl)c1Cl)C(C)(C)C)C(=O)N[C@H](C(=O)N[C@H](C(=O)N[C@H](C(=O)N[C@@H](CCC(N)=O)C(=O)N[C@@H](Cc1c[nH]cn1)C(=O)N[C@H](CC(C)C)C(=O)N[C@@H](Cc1c[nH]cn1)C(=O)NCCC(=O)N[C@@H](CCCCNC(=S)Nc1ccc(-c2c3ccc(=O)cc-3oc3cc(O)ccc23)c(C(=O)O)c1)C(N)=O)[C@@H](C)O)[C@@H](C)CC)C(C)(C)C
0.357	CC[C@H](C)[C@H](NC(=O)[C@@H](NC(=O)C1CCCC1)C(C)(C)C)C(=O)N[C@H](C(=O)N[C@H](C(=O)N[C@H](C(=O)NCC(=O)N1CCC[C@H]1C(=O)N[C@@H](Cc1c[nH]cn1)C(=O)N[C@@H](CCC(=O)O)C(=O)N[C@@H](CCC(=O)O)C(=O)N[C@@H](Cc1ccc(O)cc1)C(=O)N[C@@H](CCCCNC(=S)Nc1ccc(-c2c3ccc(=O)cc-3oc3cc(O)ccc23)c(C(=O)O)c1)C(N)=O)[C@@H](C)O)[C@@H](C)CC)C(C)(C)C (Cyclopentanecarbonyl-[Tle]I[Tle]ITGPHEEYK(X5)-NH2)
0.224	CC[C@H](C)[C@H](NC(=O)[C@@H](NC(=O)c1ccccc1)C(C)(C)C)C(=O)N[C@H](C(=O)N[C@H](C(=O)N[C@H](C(=O)NCC(=O)N1CCC[C@H]1C(=O)N[C@@H](Cc1c[nH]cn1)C(=O)N[C@@H](CCC(=O)O)C(=O)N[C@@H](CCC(=O)O)C(=O)N[C@@H](Cc1ccc(O)cc1)C(=O)N[C@@H](CCCCNC(=S)Nc1ccc(-c2c3ccc(=O)cc-3oc3cc(O)ccc23)c(C(=O)O)c1)C(N)=O)[C@@H](C)O)[C@@H](C)CC)C(C)(C)C (Bz-[Tle]I[Tle]ITGPHEEYK(X5)-NH2)
0.0091	CC[C@H](C)[C@H](NC(=O)[C@@H](NC(=O)c1cccc(Cl)c1Cl)C(C)(C)C)C(=O)N[C@H](C(=O)N[C@H](C(=O)N[C@H](C(=O)N[C@@H](CCC(N)=O)C(=O)N[C@@H](Cc1c[nH]cn1)C(=O)N[C@H](CC(C)C)C(=O)N[C@@H](CO)C(=O)NCCC(=O)N[C@@H](CCCCNC(=S)Nc1ccc(-c2c3ccc(=O)cc-3oc3cc(O)ccc23)c(C(=O)O)c1)C(N)=O)[C@@H](C)O)[C@@H](C)CC)C(C)(C)C
0.7	CC[C@H](C)[C@H](NC(=O)[C@@H](NC(=O)c1cccc(Cl)c1Cl)C(C)(C)C)C(=O)N[C@H](C(=O)N[C@H](C(=O)N[C@H](C(=O)NCCOCCOCC(=O)N[C@@H](CCCCNC(=S)Nc1ccc(-c2c3ccc(=O)cc-3oc3cc(O)ccc23)c(C(=O)O)c1)C(N)=O)[C@@H](C)O)[C@@H](C)CC)C(C)(C)C ({Benzoyl(2,3-Cl2)}-[Tle]I[Tle]IT[AEEA]K(X5)-NH2)
0.092	CC[C@H](C)[C@H](NC(=O)[C@@H](NC(=O)CNC(=O)[C@H](Cc1c[nH]cn1)NC(=O)[C@@H]1CCCN1C(=O)CNC(C)=O)C(C)(C)C)C(=O)N[C@H](C(=O)N[C@H](C(=O)N[C@H](C(=O)NCC(=O)N1CCC[C@H]1C(=O)N[C@@H](Cc1c[nH]cn1)C(=O)N[C@@H](CCC(=O)O)C(=O)N[C@@H](CCC(=O)O)C(=O)N[C@@H](Cc1ccc(O)cc1)C(=O)N[C@@H](CCCCNC(=S)Nc1ccc(-c2c3ccc(=O)cc-3oc3cc(O)ccc23)c(C(=O)O)c1)C(N)=O)[C@@H](C)O)[C@@H](C)CC)C(C)(C)C (Ac-GPHG[Tle]I[Tle]ITGPHEEYK(X5)-NH2)
> 5.8	CC[C@H](C)[C@H](NC(=O)[C@@H](NC=O)C(C)(C)C)C(=O)N[C@H](C(=O)N[C@H](C(=O)N[C@H](C(=O)NCC(=O)N1CCC[C@H]1C(=O)N[C@@H](Cc1c[nH]cn1)C(=O)N[C@@H](CCC(=O)O)C(=O)N[C@@H](CCC(=O)O)C(=O)N[C@@H](Cc1ccc(O)cc1)C(=O)N[C@@H](CCCCNC(=S)Nc1ccc(-c2c3ccc(=O)cc-3oc3cc(O)ccc23)c(C(=O)O)c1)C(N)=O)[C@@H](C)O)[C@@H](C)CC)C(C)(C)C (For-[Tle]I[Tle]ITGPHEEYK(X5)-NH2)

assay: Half life in 25% human serum at 5 uM at 37 degC by HPLC analysis; type: ADME, cell-free

half-life at 5 µM [h]	SMILES
1	CC[C@H](C)[C@H](NC(=O)[C@@H](NC(=O)[C@@H]1CCCN1C(=O)[C@H](Cc1cnc[nH]1)NC(=O)[C@@H]1CCCN1C(=O)CN)C(C)C)C(=O)N[C@H](C(=O)N[C@H](C(=O)N[C@H](C(=O)NCC(=O)N1CCC[C@H]1C(=O)N[C@@H](Cc1cnc[nH]1)C(=O)N[C@@H](CCC(=O)O)C(=O)N[C@@H](CCC(=O)O)C(=O)O)[C@@H](C)O)[C@@H](C)CC)C(C)C
6	CC[C@H](C)[C@H](NC(=O)[C@@H](NC(=O)[C@@H](NC(=O)[C@@H](NC(=O)[C@@H]1CCCN1C(=O)[C@H](Cc1cnc[nH]1)NC(=O)[C@@H]1CCCN1C(=O)CN)C(C)(C)C)[C@@H](C)CC)C(C)(C)C)C(=O)N[C@H](C(=O)NCC(=O)N1[C@H](C(=O)N[C@@H](Cc2cnc[nH]2)C(=O)N[C@@H](CCC(=O)O)C(=O)N[C@@H](CCC(=O)O)C(=O)O)CSC1(C)C)[C@@H](C)O (H-GPHP[Tle]I[Tle]ITG[X3]HEE-OH)
